Data as given in ChEMBL document CHEMBL1152776, “Facile synthesis of diazido-functionalized biaryl compounds as radioisotope-free photoaffinity probes by Suzuki-Miyaura coupling” (Bioorg Med Chem, 2009).
Calls of active or inactive are those of the source. The calls are words filed in the database; no cut-off is given here.

Columns and labels:
[1] = target: Ryanodine receptor 1 (Homo sapiens) (UniProt P21817); assay: Binding affinity to RyR1 by photolabeling experiment
Muscle tissue [2] = assay: Inhibition of physiological calcium release in mouse sarcoplasmic reticular skeletal muscle; assay type: functional, tissue-based
Mus musculus [3] = organism: Mus musculus; assay: Inhibition of Ca2+-induced calcium release in mouse sarcoplasmic reticular skeletal muscle; assay type: functional
Muscle tissue [4] = assay: Inhibition of physiological calcium release in mouse sarcoplasmic reticular skeletal muscle at 50 uM; assay type: functional, tissue-based
Mus musculus [5] = organism: Mus musculus; assay: Inhibition of Ca2+-induced calcium release in mouse sarcoplasmic reticular skeletal muscle at 50 uM; assay type: functional
[6] = tested as the 125I-labelled form

Chain of Ryanodine receptor 1 (Homo sapiens) (P21817 whole entry): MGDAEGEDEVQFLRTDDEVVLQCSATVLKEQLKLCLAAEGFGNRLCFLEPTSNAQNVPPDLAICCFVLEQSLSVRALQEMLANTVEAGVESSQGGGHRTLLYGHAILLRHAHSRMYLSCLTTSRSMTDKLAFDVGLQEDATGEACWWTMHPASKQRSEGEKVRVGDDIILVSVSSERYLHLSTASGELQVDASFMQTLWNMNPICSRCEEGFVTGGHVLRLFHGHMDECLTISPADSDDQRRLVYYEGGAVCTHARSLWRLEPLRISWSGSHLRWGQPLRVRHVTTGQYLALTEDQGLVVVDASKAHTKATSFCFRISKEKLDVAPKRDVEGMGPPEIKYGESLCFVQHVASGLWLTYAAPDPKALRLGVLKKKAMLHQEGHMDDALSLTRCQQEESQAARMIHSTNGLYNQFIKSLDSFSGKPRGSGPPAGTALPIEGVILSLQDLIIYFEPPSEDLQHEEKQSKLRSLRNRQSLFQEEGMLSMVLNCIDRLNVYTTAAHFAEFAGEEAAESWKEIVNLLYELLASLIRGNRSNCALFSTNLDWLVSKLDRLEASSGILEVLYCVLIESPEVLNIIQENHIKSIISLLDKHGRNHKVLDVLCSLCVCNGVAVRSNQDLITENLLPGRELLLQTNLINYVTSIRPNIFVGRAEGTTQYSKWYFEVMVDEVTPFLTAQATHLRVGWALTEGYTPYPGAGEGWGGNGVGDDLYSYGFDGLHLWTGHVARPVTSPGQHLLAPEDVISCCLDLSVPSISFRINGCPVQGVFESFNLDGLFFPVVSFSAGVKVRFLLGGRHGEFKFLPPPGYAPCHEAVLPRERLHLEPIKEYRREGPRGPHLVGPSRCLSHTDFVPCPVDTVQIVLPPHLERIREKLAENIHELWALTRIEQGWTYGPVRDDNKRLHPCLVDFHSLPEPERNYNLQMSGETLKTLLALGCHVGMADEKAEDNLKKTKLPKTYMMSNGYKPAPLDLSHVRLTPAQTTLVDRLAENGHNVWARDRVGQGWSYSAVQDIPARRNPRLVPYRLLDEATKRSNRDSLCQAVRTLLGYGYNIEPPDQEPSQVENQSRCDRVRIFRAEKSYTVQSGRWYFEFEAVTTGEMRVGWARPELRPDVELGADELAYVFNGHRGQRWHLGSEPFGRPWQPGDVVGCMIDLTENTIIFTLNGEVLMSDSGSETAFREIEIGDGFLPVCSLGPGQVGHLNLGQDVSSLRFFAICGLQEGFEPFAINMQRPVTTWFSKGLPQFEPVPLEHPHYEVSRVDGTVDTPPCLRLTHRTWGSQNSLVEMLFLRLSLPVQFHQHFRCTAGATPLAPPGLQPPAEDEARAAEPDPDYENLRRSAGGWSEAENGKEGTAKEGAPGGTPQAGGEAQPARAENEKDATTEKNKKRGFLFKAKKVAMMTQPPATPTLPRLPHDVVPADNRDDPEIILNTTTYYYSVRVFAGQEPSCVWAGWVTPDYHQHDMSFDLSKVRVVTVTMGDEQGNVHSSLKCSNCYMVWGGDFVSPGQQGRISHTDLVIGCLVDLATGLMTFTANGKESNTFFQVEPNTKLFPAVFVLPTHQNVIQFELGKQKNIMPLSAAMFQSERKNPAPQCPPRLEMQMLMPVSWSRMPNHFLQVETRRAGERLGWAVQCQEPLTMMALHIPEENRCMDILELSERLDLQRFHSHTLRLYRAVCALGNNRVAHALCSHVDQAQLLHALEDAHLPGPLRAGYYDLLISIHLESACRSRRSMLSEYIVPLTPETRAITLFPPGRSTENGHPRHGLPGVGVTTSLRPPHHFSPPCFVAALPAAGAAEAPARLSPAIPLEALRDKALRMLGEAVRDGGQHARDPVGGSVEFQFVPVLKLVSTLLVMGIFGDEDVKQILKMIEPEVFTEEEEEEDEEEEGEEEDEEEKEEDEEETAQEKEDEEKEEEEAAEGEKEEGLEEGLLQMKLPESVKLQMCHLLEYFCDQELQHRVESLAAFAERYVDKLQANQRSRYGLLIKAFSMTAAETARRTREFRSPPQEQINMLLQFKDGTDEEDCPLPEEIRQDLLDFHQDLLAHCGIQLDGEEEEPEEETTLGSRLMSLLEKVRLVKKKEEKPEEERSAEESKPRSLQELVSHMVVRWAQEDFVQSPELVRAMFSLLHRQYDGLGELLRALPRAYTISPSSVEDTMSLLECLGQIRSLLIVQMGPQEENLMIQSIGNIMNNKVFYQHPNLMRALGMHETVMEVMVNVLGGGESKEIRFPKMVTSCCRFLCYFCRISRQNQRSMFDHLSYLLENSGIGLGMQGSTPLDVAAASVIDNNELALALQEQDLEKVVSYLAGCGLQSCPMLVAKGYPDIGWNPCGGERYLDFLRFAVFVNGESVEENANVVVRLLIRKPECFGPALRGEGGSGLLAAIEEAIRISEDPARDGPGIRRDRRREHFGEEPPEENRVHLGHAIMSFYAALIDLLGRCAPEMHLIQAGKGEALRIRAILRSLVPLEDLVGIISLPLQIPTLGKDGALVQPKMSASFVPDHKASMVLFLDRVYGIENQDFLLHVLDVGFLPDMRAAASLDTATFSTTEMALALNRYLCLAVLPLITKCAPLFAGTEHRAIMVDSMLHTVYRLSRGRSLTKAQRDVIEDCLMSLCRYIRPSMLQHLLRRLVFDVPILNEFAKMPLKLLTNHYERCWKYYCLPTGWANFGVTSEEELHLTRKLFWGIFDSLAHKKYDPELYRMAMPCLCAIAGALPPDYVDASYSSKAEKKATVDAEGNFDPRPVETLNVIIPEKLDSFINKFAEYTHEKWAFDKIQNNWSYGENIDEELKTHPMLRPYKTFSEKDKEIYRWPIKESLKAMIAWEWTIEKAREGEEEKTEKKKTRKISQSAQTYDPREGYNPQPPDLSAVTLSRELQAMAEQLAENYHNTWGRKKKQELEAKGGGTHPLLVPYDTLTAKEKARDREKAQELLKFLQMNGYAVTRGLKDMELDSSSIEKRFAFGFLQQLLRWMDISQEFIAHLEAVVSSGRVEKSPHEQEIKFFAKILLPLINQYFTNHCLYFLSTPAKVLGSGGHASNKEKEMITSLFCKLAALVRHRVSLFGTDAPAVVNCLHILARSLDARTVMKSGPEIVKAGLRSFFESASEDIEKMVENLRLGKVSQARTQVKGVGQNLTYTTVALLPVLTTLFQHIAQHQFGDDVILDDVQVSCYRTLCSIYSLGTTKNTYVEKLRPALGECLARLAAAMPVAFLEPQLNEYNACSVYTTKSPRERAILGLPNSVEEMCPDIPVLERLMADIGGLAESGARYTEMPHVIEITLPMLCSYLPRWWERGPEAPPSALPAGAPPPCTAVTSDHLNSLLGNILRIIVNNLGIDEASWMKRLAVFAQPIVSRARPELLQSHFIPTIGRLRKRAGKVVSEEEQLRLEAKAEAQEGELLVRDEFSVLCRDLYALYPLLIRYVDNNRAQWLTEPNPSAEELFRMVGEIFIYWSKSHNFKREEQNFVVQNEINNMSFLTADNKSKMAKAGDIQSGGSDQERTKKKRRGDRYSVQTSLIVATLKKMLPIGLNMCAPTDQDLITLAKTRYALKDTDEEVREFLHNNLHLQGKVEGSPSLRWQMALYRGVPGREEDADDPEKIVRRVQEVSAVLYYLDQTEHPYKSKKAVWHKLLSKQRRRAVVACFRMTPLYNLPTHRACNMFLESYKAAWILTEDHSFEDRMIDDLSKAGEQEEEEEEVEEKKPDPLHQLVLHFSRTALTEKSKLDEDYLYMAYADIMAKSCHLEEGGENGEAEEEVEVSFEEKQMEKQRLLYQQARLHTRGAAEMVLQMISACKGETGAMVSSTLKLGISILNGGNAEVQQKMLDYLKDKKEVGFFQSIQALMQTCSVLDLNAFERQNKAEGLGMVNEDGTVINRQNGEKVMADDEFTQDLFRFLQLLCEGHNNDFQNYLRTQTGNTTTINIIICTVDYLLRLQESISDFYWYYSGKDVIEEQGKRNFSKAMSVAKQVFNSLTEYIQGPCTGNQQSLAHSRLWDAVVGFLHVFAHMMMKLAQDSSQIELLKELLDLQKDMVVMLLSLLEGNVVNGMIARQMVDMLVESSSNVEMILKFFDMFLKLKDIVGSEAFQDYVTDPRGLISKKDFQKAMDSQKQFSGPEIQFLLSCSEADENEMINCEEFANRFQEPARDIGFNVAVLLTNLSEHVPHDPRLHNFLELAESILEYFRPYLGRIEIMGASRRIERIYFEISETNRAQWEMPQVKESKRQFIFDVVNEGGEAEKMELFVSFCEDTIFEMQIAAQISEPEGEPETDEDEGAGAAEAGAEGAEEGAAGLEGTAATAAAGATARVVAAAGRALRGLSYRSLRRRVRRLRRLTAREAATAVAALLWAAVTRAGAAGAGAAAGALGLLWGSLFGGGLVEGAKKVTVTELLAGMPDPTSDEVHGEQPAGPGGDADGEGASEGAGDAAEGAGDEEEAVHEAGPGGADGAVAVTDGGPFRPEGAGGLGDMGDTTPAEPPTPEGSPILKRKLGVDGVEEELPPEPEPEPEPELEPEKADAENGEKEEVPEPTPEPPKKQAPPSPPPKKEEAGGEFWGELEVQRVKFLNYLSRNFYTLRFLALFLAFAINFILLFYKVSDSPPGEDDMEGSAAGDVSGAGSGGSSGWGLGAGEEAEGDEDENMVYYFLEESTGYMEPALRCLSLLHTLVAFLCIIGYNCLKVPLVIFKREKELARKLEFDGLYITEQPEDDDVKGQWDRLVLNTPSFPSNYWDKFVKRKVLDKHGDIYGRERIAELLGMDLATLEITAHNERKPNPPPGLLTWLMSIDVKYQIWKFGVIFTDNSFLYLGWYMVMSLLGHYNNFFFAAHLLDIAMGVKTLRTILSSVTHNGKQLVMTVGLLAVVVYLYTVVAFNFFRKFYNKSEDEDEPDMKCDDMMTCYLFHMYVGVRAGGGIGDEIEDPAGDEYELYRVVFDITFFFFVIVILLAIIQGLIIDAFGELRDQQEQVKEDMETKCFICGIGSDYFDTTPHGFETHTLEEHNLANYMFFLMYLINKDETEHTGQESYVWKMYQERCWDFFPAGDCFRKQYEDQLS

[N-]=[N+]=Nc1cc(I)cc(CN2C(=O)CN(/N=C/c3ccc(-c4ccc([N+](=O)[O-])cc4)o3)C2=O)c1
Activity [1, 6]: inactive | Activity (Muscle tissue [2]; [6]): Active | Activity (Mus musculus [3]; [6]): inactive

[N-]=[N+]=NCc1cc(CN2C(=O)CN(/N=C/c3ccc(-c4ccc([N+](=O)[O-])cc4)o3)C2=O)cc(N=[N+]=[N-])c1
Activity [1]: inactive | Activity (Muscle tissue [2]): Active

[N-]=[N+]=Nc1ccc(-c2ccc(/C=N/N3CC(=O)NC3=O)o2)cc1
Activity (Muscle tissue [4]): Active | Activity (Mus musculus [5]): Active

[N-]=[N+]=NCc1cc(N=[N+]=[N-])cc(-c2ccc(/C=N/N3CC(=O)NC3=O)o2)c1
Activity (Muscle tissue [2]): Active | Activity (Mus musculus [3]): inactive
